# Reference: patent publication US20190142748A1 (priority 2016, published 2019)
# What was measured:
# [1] = cited from earlier work
# [2] = Chlorambucil stability in aqueous solution (LCMS area percent); format: physicochemical; conditions: chlorambucil in water (5% methanol)
# [3] = oral; cited from earlier work
# [4] = ten patients; cited from earlier work
# [5] = biological target: plasma proteins, specifically albumin (Homo sapiens, UniProt P02768); conditions: in vitro; cited from earlier work
# Sequence of plasma proteins, specifically albumin (P02768 25-609): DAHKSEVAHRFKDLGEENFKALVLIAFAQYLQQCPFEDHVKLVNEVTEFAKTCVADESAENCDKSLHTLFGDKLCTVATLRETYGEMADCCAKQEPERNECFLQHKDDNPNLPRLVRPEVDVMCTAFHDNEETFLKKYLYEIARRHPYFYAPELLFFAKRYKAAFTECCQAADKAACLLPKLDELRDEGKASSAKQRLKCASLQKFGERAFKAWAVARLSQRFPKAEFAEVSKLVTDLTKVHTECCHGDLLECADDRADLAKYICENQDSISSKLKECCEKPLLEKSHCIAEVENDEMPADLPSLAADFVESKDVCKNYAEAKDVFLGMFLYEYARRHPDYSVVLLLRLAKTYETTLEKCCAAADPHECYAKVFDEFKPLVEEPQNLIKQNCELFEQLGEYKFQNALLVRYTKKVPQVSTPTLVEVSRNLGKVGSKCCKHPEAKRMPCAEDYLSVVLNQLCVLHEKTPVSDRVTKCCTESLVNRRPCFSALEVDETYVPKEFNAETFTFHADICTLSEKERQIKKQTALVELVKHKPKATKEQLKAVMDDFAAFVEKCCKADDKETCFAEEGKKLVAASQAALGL
smiles,measurement,setting,value
O=C(O)CCCc1ccc(N(CCCl)CCCl)cc1 [Chlorambucil],solubility in acetone and in alcohol,"[1]; acetone, alcohol",freely soluble
same,solubility in water,[1]; water,practically insoluble
same,Chlorambucil (Area %),[2]; t 0 h,98.3 Area %
same,Chlorambucil (Area %),[2]; t 1 h,85.3 Area %
same,Chlorambucil (Area %),[2]; t 2 h,74.8 Area %
same,Chlorambucil (Area %),[2]; t 3 h,64.4 Area %
same,Chlorambucil (Area %),[2]; t 4 h,58.9 Area %
same,Chlorambucil (Area %),[2]; t 5 h,53.1 Area %
same,absorbed from the gastrointestinal tract,[3],> 70%
same,increase of median Tmax by food intake,[4],2 fold
same,reduction of dose-adjusted AUC by food intake,[4],20%
same,reduction of dose-adjusted Cmax by food intake,[4],55%
same,bound to plasma proteins,[5],99%
